{"source": "patent US20220226335A1", "about": "“Non-Peptidic Heterocycle-Containing Compounds for the Treatment of Alzheimer?s Disease” (The Governors of the University of Alberta, priority 2019, published 2022)", "key": {"neurons": {"test_system": "neurons", "conditions": "Jhamandas et al., 2004; 2011; 2012; cited from earlier work"}, "[1]": {"test_system": "hippocampus of Alzheimer's disease mice (TgCRND8)", "conditions": "Kimura et al., 2012; 2016; cited from earlier work"}, "brain hippocampal slices": {"test_system": "brain hippocampal slices", "assay": "hippocampal long term potentiation (LTP) electrophysiology, slices from wild type mice", "design": "species or system mouse", "conditions": "for effect on human amylin-induced depression/reduction of LTP: hippocampal slices, Compounds 3 and 23 at 1 μM", "text": "Hippocampal long term potentiation (LTP) electrophysiology experiments: an in vitro cellular surrogate for memory. Brains were quickly removed from mice following decapitation, placed in a cold artificial cerebral spinal fluid (aCSF) on a vibratome chamber and transverse sections cut through the hippocampus. The aCSF contained (in mM) 124 NaCl, 3 KCl, 2.4 CaCl2), 2 MgCl2, 1.25 NaH2PO4, 26 NaHCO3 and 10 D-glucose, and was equilibrated with 95% O2 and 5% CO2. Hippocampal slices ([…]) were maintained in aCSF-filled holding chamber at room temperature for at least 1 hour and individually transferred to the submerged glass bottom recording chamber, which was constantly perfused with aCSF (2 mL/min) at 30° C. Field excitatory postsynaptic potential (fEPSP) was recorded with a metallic (Pt/Ir) electrode (FHC, Bowdoin, Me.) from the stratum radiatum layer of Cornu ammonis 1 region of the hippocampus (CA1) area, and the Schaffer collateral afferents were stimulated with 100-μs test pulses via a bipolar cluster electrode (FHC) (Kimura et al., 2012, Kimura et al. 2016). To evaluate basal synaptic transmission, we applied different stimulation strengths (75 μA to 300 μA in steps of 25 μA) and plotted the amplitudes of presynaptic fiber volleys versus the corresponding fEPSP slopes to compare the slope of input/output (I/O) curves of fEPSP. For long-term potentiation (LTP) experiments, the stimulus strength was set to elicit 40-50% of the maximum fEPSP amplitude and test pulses were delivered to Schaffer collaterals once every 30 seconds. LTP was induced by 3-theta-burst stimulation (3-TBS) protocol (each burst consisted of 4 pulses at 100 Hz with a 200-ms inter-burst interval). Before 3-TBS or drug application, the responses were monitored for at least 10 minutes to ensure a stable baseline of fEPSP. […] Results were from various treatment groups were plotted as histograms with means±standard error (SE). […]"}, "Aβ plaques": {"test_system": "Aβ plaques", "assay": "Aβ plaque load (FIG. 8)", "type": "in vivo"}, "[2]": {"target": "T1, amylin receptor subtype 3 (AMY3) (Homo sapiens, UniProt O60896+P30988)", "T1 construct": "expressed in transfected cells", "T1 sequence (P30988 25-474)": "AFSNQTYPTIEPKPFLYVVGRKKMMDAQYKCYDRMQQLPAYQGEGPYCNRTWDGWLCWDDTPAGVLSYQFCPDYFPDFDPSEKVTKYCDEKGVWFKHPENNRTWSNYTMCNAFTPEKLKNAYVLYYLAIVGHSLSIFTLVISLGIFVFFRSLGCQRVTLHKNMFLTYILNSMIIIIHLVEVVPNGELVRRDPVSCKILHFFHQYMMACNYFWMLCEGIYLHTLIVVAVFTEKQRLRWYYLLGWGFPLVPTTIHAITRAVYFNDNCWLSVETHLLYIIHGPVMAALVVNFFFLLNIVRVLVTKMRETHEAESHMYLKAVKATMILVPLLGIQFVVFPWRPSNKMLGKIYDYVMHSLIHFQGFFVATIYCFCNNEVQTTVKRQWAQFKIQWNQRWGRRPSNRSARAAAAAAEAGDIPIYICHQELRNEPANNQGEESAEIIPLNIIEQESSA", "T1 sequence (O60896 24-148)": "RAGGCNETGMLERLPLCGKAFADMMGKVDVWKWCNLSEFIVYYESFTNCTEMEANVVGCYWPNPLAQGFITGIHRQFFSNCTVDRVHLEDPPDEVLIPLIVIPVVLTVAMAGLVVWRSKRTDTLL", "assay": "cAMP assay in amylin receptor subtype 3 expressing cells (AMY3-HEK), ELISA and in-cell Western", "type": "cell-based", "conditions": "for IC50: compound and human amylin applied simultaneously, read-out: IC50 required to block hAmylin induced cAMP increase", "method": "An initial set of 10 compounds was screened using a cyclic AMP (cyclic adenosinemonophosphate, cAMP) assay in amylin receptor subtype 3 expressing cells.\nCell Cultures. Amylin receptor subtypes (AMY3-HEK cells) stably expressed in human embryonic kidney (HEK293) cell-line were generated and characterized as described in a previous published article from our laboratory (Fu et al., J. Biol. Chem. 2012). The AMY3-HEK cells were grown in a 5% CO2 humidified incubator at 37° C. with DMEM, 10% FBS, and 100 μg/mL Zeocin medium.\nTwo cAMP detection methods were used to validate the findings.\nELISA (enzyme-linked immunosorbent assay). Cellular cAMP levels were measured using a parameter cyclic AMP assay kit (R&D Systems) according to the manufacturer's instructions. Briefly, AMY3-HEK cells were plated on 24-well plates overnight. These cells were then incubated with or without the assay compounds and hAmylin for 5 min. The cells were lysed with lysis buffer provided in the assay kit. Standard curves were plotted using the cAMP standards provided in the ELISA kits. All samples were analyzed in duplicate. The plate is measured at 450 nm. Data was plotted, and non-linear regression was fitted with four parameters using Prism software (GraphPad Software, La Jolla, Calif.).\nIn-cell Western blot technique. Intracellular cAMP signaling profiles were also determined using in-cell Western blot technique as previously described (Fu W, et al., J Biol Chem. 2012; 287(22):18820-30). AMY3-HEK cells were seeded at 10,000 cells/well in a 96-well plate (Nalge Nunc Intl., Rochester, N.Y.) in DMEM, 10% FBS, Zeocin medium and cultured overnight. […] For cyclic adenosinemonophosphate (cAMP) quantification, mouse monoclonal anti-cAMP (R&D Systems) was used as a primary antibody, and IRDye 800 goat anti mouse antibody (LI-COR) was used as a secondary antibody, whereas Sapphire700 and DRAQ5 were used for cell number normalization (LI-COR). […]"}, "[3]": {"test_system": "N2a (mouse) neuronal cells", "assay": "MTT cell death assay, N2a neuronal cells", "type": "cell-based", "conditions": "10 μM Aβ1-42 for 24 hours", "method": "(§1) MTT Cell Death Assay. The N2a (mouse) and SK-N-SH (human) neuronal cells were seeded to 5000 cells/well in a 96-well plate in DMEM medium, 10% FBS and incubated overnight. Cells in culture medium were incubated either with or without the assay compounds and Aβ1-42, 10 μM for 24-48 h. At the end of treatment, 20 μL of 5 mg/mL 3-(4,5-dimethylthiazol-2-yl)-2,5-diphenyltetrazolium bromide (MTT, Sigma) was added to each well and incubated at 37° C. for 3 h. Medium was removed, 100 μL of MTT solvent (isopropanol with 4 mM HCl) was added to each well, and the plates were incubated for 30 min at room temperature on a rotating shaker. Plates were analyzed on a microplate reader at a 562 nm wavelength.\n(§2) FIGS. 2A and 2B. In mouse and human neuronal cell lines co-application of Compound 3 blunted human amylin and amyloid beta induced cytotoxicity. Neuronal cell lines N2a and SK-N-HS were treated with increasing concentrations of Compound 3 plus 10 μM Aβ1-42 or 5 μM hAmylin for 48 h."}, "[4]": {"test_system": "hippocampal brain slices from transgenic AD mice (TgCRND8)", "assay": "hippocampal LTP electrophysiology, slices from transgenic AD mice (TgCRND8)", "design": "species or system mouse", "conditions": "compared with age-matched control/wild type mice", "text": "Hippocampal long term potentiation (LTP) electrophysiology experiments: an in vitro cellular surrogate for memory. Brains were quickly removed from mice following decapitation, placed in a cold artificial cerebral spinal fluid (aCSF) on a vibratome chamber and transverse sections cut through the hippocampus. The aCSF contained (in mM) 124 NaCl, 3 KCl, 2.4 CaCl2), 2 MgCl2, 1.25 NaH2PO4, 26 NaHCO3 and 10 D-glucose, and was equilibrated with 95% O2 and 5% CO2. Hippocampal slices ([…]) were maintained in aCSF-filled holding chamber at room temperature for at least 1 hour and individually transferred to the submerged glass bottom recording chamber, which was constantly perfused with aCSF (2 mL/min) at 30° C. Field excitatory postsynaptic potential (fEPSP) was recorded with a metallic (Pt/Ir) electrode (FHC, Bowdoin, Me.) from the stratum radiatum layer of Cornu ammonis 1 region of the hippocampus (CA1) area, and the Schaffer collateral afferents were stimulated with 100-μs test pulses via a bipolar cluster electrode (FHC) (Kimura et al., 2012, Kimura et al. 2016). […] Before 3-TBS or drug application, the responses were monitored for at least 10 minutes to ensure a stable baseline of fEPSP. […]"}, "N2a cells": {"test_system": "N2a cells", "assay": "Live/Dead cell assay", "type": "cell-based, mouse", "conditions": "data not shown", "method": "Live/Dead cell assay. LIVE/DEAD™ Viability/Cytotoxicity Kit from ThermoFisher Scientific (Invitrogen) was used according to the instructions of the manufacturer. Briefly, The N2a cells were cultured in 8 well Lab-Tek chamber slide (ThermoFisher Scientific, Nunc). Cells were incubated either with or without the assay compounds, followed by treatment with Aβ1-42 for 24 h. At the end of treatment, the cells were washed three times with D-PBS, followed added live/dead reagent in D-PBS and culture for 30 min. Then fixed the cells with 4% paraformaldehyde for 10 min. Further washed the cells with PBS three times and sealed with coverslip. View the labeled cells under fluorescence microscope. Fluorescent microscopy images were acquired with an Axioplan-2 fluorescence microscope with AxioVision software (Carl Zeiss Ltd., Toronto, ON, Canada). Live/Dead cells were analyzed with Image J software (Schneider, C. A., Rasband, W. S., Eliceiri, K. W. “NIH Image to ImageJ: 25 years of image analysis”. Nature Methods 2012; 9:671-675)."}, "amylin receptor": {"test_system": "amylin receptor", "assay": "downstream phosphoERK response", "type": "cell-based", "conditions": "among Compounds 22-25"}, "[5]": {"test_system": "SK-N-SH (human) neuronal cells", "assay": "MTT cell death / cytotoxicity assay, SK-N-SH neuronal cells", "type": "cell-based", "conditions": "10 μM Aβ1-42 for 24 hours", "method": "as §1, §2"}}, "note": "Where two headings read alike, the source gives them in different places. Where no end group is shown, it is not given here."}
{"molecule": "AC253: peptide antagonist of the amylin receptor, SEQ ID NO: 1 (Ac-LGRLSQELHRLQTYPRTNTGSNTY)", "values": [{"measurement": "neuroprotection against Aβ toxicity", "setting": "neurons", "result": "neuroprotective against Aβ toxicity"}, {"measurement": "effect on Aβ- or human amylin-induced depression of long-term potentiation", "setting": "[1]", "result": "can reverse impairment of Aβ- or human amylin-induced depression of long-term potentiation"}]}
{"molecule": "COC(=O)N[C@H](C(=O)N1CCC[C@H]1c1ncc(-c2ccccc2)[nH]1)C(C)C", "note": "[AVI9030, methyl N-[(1S)-2-methyl-1-[[(2S)-2-(5-phenyl-1H-imidazol-2-yl)-1-pyrrolidinyl]carbonyl]propyl]carbamate, reference compound]", "values": [{"measurement": "effect on human amylin-induced depression/reduction of LTP", "setting": "brain hippocampal slices", "result": "did not block human amylin-induced reduction of LTP"}]}
{"molecule": "cyclized AC253: cyclized AC253 (CLGRLSQELHRLQTYPRTNTGSNTYC; also: cyclised, mode of ring closure not given here) [reference compound]", "values": [{"measurement": "area covered by plaques", "setting": "Aβ plaques", "result": "decreases"}, {"measurement": "total Aβ plaques", "setting": "Aβ plaques", "result": "decreases"}]}
{"molecule": "Cc1nc(C)c(CCC(=O)N2CC(=O)Nc3ccccc32)c(=O)[nH]1", "note": "[Compound 23, 4-(3-(2,4-dimethyl-6-oxo-1,6-dihydropyrimidin-5-yl)propanoyl)-3,4-dihydroquinoxalin-2(1H)-one]", "values": [{"measurement": "IC50", "setting": "[2]; 0.1 μM hAmylin", "result": 1, "unit": "nM"}, {"measurement": "IC50", "setting": "[2]; 1 μM hAmylin", "result": 150, "unit": "nM"}, {"measurement": "potency rank in cAMP assay", "setting": "[2]; among Compounds 22-25", "result": "most potent of these four analogues"}, {"measurement": "effect on human amylin-induced depression/reduction of LTP", "setting": "brain hippocampal slices", "result": "restored the reduction in LTP by nanomolar dose of human amylim (h-Amylin) to control levels"}, {"measurement": "effect on amyloid beta (Aβ)-induced reduction in LTP", "setting": "brain hippocampal slices; nanomolar dose of Aβ, compound 1 μM", "result": "restored to control levels"}, {"measurement": "neuroprotection against amyloid beta toxicity", "setting": "[3]", "result": "neuroprotective against amyloid beta toxicity"}, {"measurement": "effect on chronically depressed LTP in transgenic AD mice slices", "setting": "[4]", "result": "restoration of LTP in AD mice to levels comparable to wild type mice"}, {"measurement": "neuroprotective effects against Aβ toxicity, Live/Dead cell assay", "setting": "N2a cells", "result": "confirmed neuroprotective effects"}, {"measurement": "potency rank in downstream phosphoERK response", "setting": "amylin receptor", "result": "most potent of these four analogues"}, {"measurement": "area covered by plaques", "setting": "Aβ plaques", "result": "decreases"}, {"measurement": "total Aβ plaques", "setting": "Aβ plaques", "result": "decreases"}, {"measurement": "neuroprotection against amyloid beta toxicity", "setting": "[5]", "result": "neuroprotective against amyloid beta toxicity"}]}
